Laboratory results reported in patent US20060194969A1, “4-Substituted benzimidazoles and their uses as inhibitors of gastric secretion” (priority 2002, published 2006).

Tests used:
[1] = test system: pentagastrin-stimulated acid secretion of the perfused rat stomach; assay: Secretion-inhibiting action on the perfused rat stomach (pentagastrin-stimulated acid secretion, intraduodenal administration in vivo); conditions: intraduodenal, dose 1 μmol/kg i.d., anesthetized female CD rat
Description: Testing of the Secretion-Inhibiting Action on the Perfused Rat Stomach
In Table A which follows, the influence of the compounds according to the invention on the pentagastrin-stimulated acid secretion of the perfused rat stomach after intraduodenal administration in vivo is shown.
The abdomen of anesthetized rats (CD rat, female, 200-250 g; 1.5 g/kg i.m. urethane) was opened after tracheotomy by a median upper abdominal incision and a PVC catheter was fixed transorally in the esophagus and another via the pylorus such that the ends of the tubes just projected into the gastric lumen. The catheter leading form the pylorus led outward into the right abdominal wall through a side opening.
After thorough rinsing (about 50-100 ml), warm (37° C.) physiological NaCl solution was continuously passed through the stomach (0.5 ml/min, pH 6.8-6.9; Braun-Unita I). The pH (pH meter 632, glass electrode EA 147; φ=5 mm, Metrohm) and, by titration with a freshly prepared 0.01 N NaOH solution to pH 7 (Dosimat 665 Metrohm), the secreted HCl were determined in the effluent in each case collected at an interval of 15 minutes.
The gastric secretion was stimulated by continuous infusion of 1 μg/kg (=1.65 ml/h) of i.v. pentagastrin (left femoral vein) about 30 min after the end of the operation (i.e. after determination of 2 preliminary fractions). The substances to be tested were administered intraduodenally in a 2.5 ml/kg liquid volume 60 min after the start of the continuous pentagastrin infusion.
The body temperature of the animals was kept at a constant 37.8-38° C. by infrared irradiation and heat pads (automatic, stepless control by means of a rectal temperature sensor).

SMILES	inhibition in vivo at 1 µmol/kg [1] [%]	melting point [°C]
CCc1cccc(C)c1CNc1cc(C(=O)N(C)C)cc2c1nc(COC)n2C [Example 42, 6-(N,N-Dimethylaminocarbonyl)-4-(2-ethyl-6-methyl-benzylamino)-2-methoxymethyl-1-methyl-1H-benzimidazole]	> 50	154
COCc1nc2c(NCc3c(C)cccc3C)cc(C(=O)N(C)C)cc2n1C [Example 43, 6-(N,N-Dimethylaminocarbonyl)-4-(2,6-dimethyl-benzylamino)-2-methoxymethyl-1-methyl-1H-benzimidazole]	> 50	156 to 157
CCc1cccc(C)c1CNc1cc(C(=O)N(C)C)cc2c1ncn2C.Cl [Example 45, 6-(N,N-Dimethylaminocarbonyl)-4-(2-ethyl-6-methyl-benzylamino)-1-methyl-1H-benzimidazole Hydrochloride]	> 50	183 to 184
Cc1cccc(C)c1CNc1cc(C(=O)N(C)C)cc2c1nc(C)n2C [Example 46, 6-(N,N-Dimethylaminocarbonyl)-4-(2,6-dimethyl-benzylamino)-1,2-dimethyl-1H-benzimidazole]	> 50	142 to 143
CCc1cccc(C)c1CNc1cc(C(=O)N(C)C)cc2[nH]c(C)nc12 [Example 49, 6-(N,N-Dimethylaminocarbonyl)-4-(2-ethyl-6-methyl-benzylamino)-2-methyl-1H-benzimidazole]	> 50	228 to 230
CNC(=O)c1cc(NCc2c(C)cccc2C)c2nc(C)n(C)c2c1 [Example 55, 4-(2,6-Dimethyl-benzylamino)-1,2-dimethyl-6-(N-methylaminocarbonyl)-1H-benzimidazole]	> 50	252 to 253
